Literature values in paper PMC8597174 (Clinical Pharmacology in Drug Development, 2021).

## salmon calcitonin
  Effect of dosing after meal intake on maximum concentration and AUC: significant reduction in maximum concentration and AUC
